# From patent publication US7906514B1, “Animal model and compounds identified via this model for treatment of chronic pain” (Trustees of Dartmouth College, priority 1999, dated 2011)
# Legend:
# [1] = tested on: rat model for lower back pain (L5 spinal root loosely ligated with chromic gut); test: Mechanical sensitivity (allodynia) testing with von Frey filaments after L5 spinal root injury; assay type: in vivo
# Description: (§1) The first phase of the study investigated three combinations of treatments: 1) Group A—methotrexate administration locally (intrathecally) to the surgical area immediately following surgery, followed by additional methotrexate administration locally at days 2 and 4 post-surgery; 2) Group B—saline administration locally to the surgical area immediately following surgery and at days 2 and 4 post-surgery; and 3) Group C—sham-operated animals that received methotrexate at the same time points. In all animals, gait disturbance and mechanical allodynia were assessed until animals were euthanized 7 days after surgery.
# In the second phase of the study, animals were assessed out to day 14 post-surgery and given additional treatments as follows: 1) Group D—surgically prepared, saline treated rats were then given methotrexate locally during the second week of the study on days 7, 9, and 11 post-surgery; 2) Group E—surgically prepared, saline treated rats were then given saline locally during the second week on days 7, 9, and 11 post-surgery; and 3) Group F—surgically prepared, methotrexate treated rats were then given saline during the second week on days 7, 9, and 11 post-surgery. Gait disturbance and mechanical allodynia were assessed before surgery and at days 2, 4, 7, 9, 11, and 14 until euthanization.
# (§2) Male Holtzman rats (200-250 g) were used. All surgical procedures were performed under inhalation anesthesia (induced at 4% and maintained at 2% halothane in 100% O2). Spinal root, dorsal root ganglia, and the adjacent dura mater on the left side at L5 were carefully exposed by hemilaminectomy using a surgical microscope. Five 0.3 cm pieces of 4-0 chromic gut ligature were laid adjacent to the root and secured by two loose ligatures of 5-0 chromic gut. The muscle layers and incision were closed with 3-0 silk suture and staples, respectively.
# For phase I, three combinations of treatments were investigated. Methotrexate was reconstituted to 10 mg/ml in saline and pH adjusted to 7.4. Group A represented root injury plus methotrexate treatment. Immediately following surgery and prior to incision closure, Group A rats received 1 mg/kg of methotrexate (volume 100 ul/kg) by injecting through a PE-10 catheter through an incision in the exposed dura mater to a position 3 cm central to the incision. The PE-10 catheter was pulled out and the same dose and volume of methotrexate (1 mg/kg) was administered around the injured nerve roots (total dose 2 mg/kg). The wound was closed. On days 2 and 4 post-surgery, under inhalation anesthesia, methotrexate was again administered by opening the surgical wound and repeating delivery of methotrexate as before.
# Group C animals represented sham-operated plus methotrexate treatment. In these animals, the L5 nerve roots were exposed but not injured. Methotrexate was administered using the same dose, protocol, and time points as Group A.
# For phase II of the study, the protocol was extended to day 14 with the surgery, delivery method, volume and doses being identical to those of the phase I study. Rats were divided into 3 groups. Group D represented saline plus methotrexate treatment. Saline was administered at the time of surgery and at days 2 and 4 post-surgery. Methotrexate was administered in the second week at days 7, 9 and 11 post-surgery.
# Group F represented methotrexate plus saline treatment. In these rats, methotrexate was administered during surgery and at days 2 and 4 post-surgery. Saline was then administered on days 7, 9, and 11 post-surgery. Gait disturbance and mechanical allodynia were also assessed in these animals at days 2, 4, 7, 9, 11 and 14 (day of euthanization).
# Animals were tested for 3 days pre-operatively to acclimate to the testing apparatus and the experimenter, and to obtain baseline values. All testing was performed by experimenters blinded to the treatments.
# [2] = tested on: rat model for lower back pain (L5 spinal root loosely ligated with chromic gut); test: Gait disturbance and hind paw inversion testing after L5 spinal root injury; assay type: in vivo; details: phase I
# Description: as §1, with “surgery. […]” for “surgery.”
# as §2
# For phase I, three combinations of treatments were investigated. Methotrexate was reconstituted to 10 mg/ml in saline and pH adjusted to 7.4. Group A represented root injury plus methotrexate treatment. […]
# [3] = tested on: rat model for lower back pain (L5 spinal root loosely ligated with chromic gut); test: Gross pathological inspection of injured nerve roots following euthanasia; assay type: in vivo; details: methotrexate-treated groups (A, D and F) compared to saline-treated groups (B and E)
# Description: In all groups except the sham-operated animals (Group C), the treated nerve roots were encapsulated with dense granulation tissue and fibrous adhesions.
# as §2
# For phase I, three combinations of treatments were investigated. Methotrexate was reconstituted to 10 mg/ml in saline and pH adjusted to 7.4. Group A represented root injury plus methotrexate treatment. Immediately following surgery and prior to incision closure, Group A rats received 1 mg/kg of methotrexate (volume 100 ul/kg) by injecting through a PE-10 catheter through an incision in the exposed dura mater to a position 3 cm central to the incision. […]
# Group F represented methotrexate plus saline treatment. […] Gait disturbance and mechanical allodynia were also assessed in these animals at days 2, 4, 7, 9, 11 and 14 (day of euthanization).
# [4] = tested on: OX-42 and GFAP (glial fibrillary acidic protein); test: Immunohistochemical analysis of spinal glial activation; assay type: in vivo, rat; details: methotrexate-treated groups vs saline-treated groups; L5 spinal cord sections
# Description: All animals were perfusion fixed for immunohistochemistry. Under deep anesthesia (sodium pentobarbital, 50 mg/kg intraperitoneally) rats were euthanized by transcardiac perfusion. Rats were then perfused with 300 ml phosphate buffered saline (PBS) followed by 500 ml 4% paraformaldehyde in 0.1 M PBS. Following perfusion and laminectomy, the lesioned L5 roots were verified and traced to their site of entry into the spinal cord. Appropriate L5 spinal cord segments were harvested and post fixed for 4 hours in fixative and then cryoprotected 2-3 days in 30% sucrose/PBS at 4° C. The segments were then freeze-mounted in OCT embedding medium on cork blocks for cryostat sectioning.
# Optimal dilutions and incubation time periods for each antibody and lot were determined prior to the study. Immunohistochemistry was performed with the avidin-biotin technique on free-floating 20 μm sections. Elimination of the primary antibody was performed in each run as a negative control. Monoclonal antibody OX-42 (labeling the complement receptor-3, CDllb) was used as a microglial marker at a dilution of […]. A rabbit polyclonal antibody to glial fibrillary protein (anti-GFAP, DAKO, Carpintra, Calif.) was used as an astrocytic marker at a dilution of 1:20,000. Five or more sections per animal were prepared from the L5 segments in each run. […]
# [5] = dose without acute neurotoxic effects; Morris et al. 1992; cited from earlier work
compound,measurement,setting,value
"CN(Cc1cnc2nc(N)nc(N)c2n1)c1ccc(C(=O)N[C@@H](CCC(=O)O)C(=O)O)cc1 [methotrexate, Methotrexate]","mechanical allodynia, overall conclusion","[1]; lower back pain model with radiculopathy, local administration",significantly attenuates
same,mechanical allodynia,"[1]; phase I, Group A (injury+methotrexate at surgery, days 2 and 4), toward baseline after peak at day 2, to day 7",significantly reduced
same,mechanical allodynia response after surgery,"[1]; phase I, Group C (sham-operated+methotrexate)",minimal (minimal (0-5))
same,mechanical allodynia during the second week,"[1]; phase II, Group D (saline in week 1, methotrexate on days 7, 9, 11), existing allodynia, Group E (saline) persisted",significantly decreased
same,allodynia at day 7 post-surgery,"[1]; phase II, Group F (methotrexate at surgery, days 2 and 4) compared to Groups D and E",significantly attenuated
same,allodynic response during the second week,"[1]; phase II, Group F compared to Group E",significantly lower
same,postoperative changes in hind paw inversion or gait disturbance,"[2]; Group A (injury+methotrexate, 1 mg/kg intrathecal + 1 mg/kg perineural at surgery, days 2 and 4) vs Group B (saline)",no significant difference
same,hind paw inversion or gait disturbance,"[2]; Group C, sham-operated + methotrexate at surgery, days 2 and 4",did not demonstrate any hind paw inversion or gait disturbance
same,granulation and adhesion around the injured nerve roots,[3],markedly decreased
same,"level of glial activation (OX-42, GFAP)",[4],significant difference
same,administered dose (1 mg/kg) as fraction of the maximally tolerated dose for rats,[5],one quarter
